These compounds were tested against Serine/threonine-protein kinase PLK1 (Homo sapiens) (UniProt P53350). Conditions: not given.
Serine/threonine-protein kinase PLK1 (Homo sapiens), sequence (P53350 whole entry): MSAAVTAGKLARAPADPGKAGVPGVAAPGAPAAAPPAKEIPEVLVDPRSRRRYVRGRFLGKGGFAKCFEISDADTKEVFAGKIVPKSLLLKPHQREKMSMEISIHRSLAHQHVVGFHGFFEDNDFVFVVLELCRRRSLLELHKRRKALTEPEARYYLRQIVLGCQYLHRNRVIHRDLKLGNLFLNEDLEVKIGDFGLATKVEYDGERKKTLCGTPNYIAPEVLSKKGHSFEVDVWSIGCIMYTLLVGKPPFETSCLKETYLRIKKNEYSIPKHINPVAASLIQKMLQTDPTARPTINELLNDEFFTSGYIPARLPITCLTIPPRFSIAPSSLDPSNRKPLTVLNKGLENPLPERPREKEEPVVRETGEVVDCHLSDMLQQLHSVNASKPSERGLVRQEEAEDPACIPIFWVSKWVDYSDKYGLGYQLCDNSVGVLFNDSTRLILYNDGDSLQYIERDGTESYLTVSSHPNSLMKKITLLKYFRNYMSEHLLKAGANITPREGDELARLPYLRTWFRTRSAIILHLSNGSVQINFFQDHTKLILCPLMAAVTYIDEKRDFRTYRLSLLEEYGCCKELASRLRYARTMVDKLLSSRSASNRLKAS

SMILES	ΔTm
c1ccc(-c2n[nH]c3c2oc2ccccc23)cc1	2.2 °C
CCN(CC)CCNC(=O)c1c(C)[nH]c(/C=C2\C(=O)Nc3ccc(Cl)cc32)c1C [SU-11652]	0.5 °C
O=C1Cc2c([nH]c3ccc(Br)cc23)-c2ccccc2N1 [KENPAULLONE]	0.1 °C
CCCNC(=O)Nc1ccc(Oc2ncnc3cc(OC)c(OC)cc23)cc1Cl [KRN-633]	0.1 °C

What follows are compounds tested against Death-associated protein kinase 3 (Homo sapiens) (UniProt O43293). Conditions: not given.
Death-associated protein kinase 3 (Homo sapiens), sequence (O43293 whole entry, looked up): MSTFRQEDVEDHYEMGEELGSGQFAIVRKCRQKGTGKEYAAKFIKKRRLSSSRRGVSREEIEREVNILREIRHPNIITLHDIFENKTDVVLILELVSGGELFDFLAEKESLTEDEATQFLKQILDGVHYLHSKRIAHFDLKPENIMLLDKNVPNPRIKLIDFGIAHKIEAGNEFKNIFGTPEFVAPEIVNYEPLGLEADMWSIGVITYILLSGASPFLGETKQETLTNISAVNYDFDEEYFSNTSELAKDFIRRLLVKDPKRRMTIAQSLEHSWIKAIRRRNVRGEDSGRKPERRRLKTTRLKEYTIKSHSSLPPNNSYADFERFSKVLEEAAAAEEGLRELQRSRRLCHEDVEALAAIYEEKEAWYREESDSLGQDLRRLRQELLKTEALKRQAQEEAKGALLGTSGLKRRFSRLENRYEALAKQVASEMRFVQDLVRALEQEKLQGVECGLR

SMILES	ΔTm
c1ccc(-c2n[nH]c3c2oc2ccccc23)cc1	-0.9 °C
CCN(CC)CCNC(=O)c1c(C)[nH]c(/C=C2\C(=O)Nc3ccc(Cl)cc32)c1C [SU-11652]	5.9 °C
O=C1Cc2c([nH]c3ccc(Br)cc23)-c2ccccc2N1 [KENPAULLONE]	0.4 °C
CCCNC(=O)Nc1ccc(Oc2ncnc3cc(OC)c(OC)cc23)cc1Cl [KRN-633]	1.3 °C

Each compound was assayed against T1, Mitogen-activated protein kinase 3 (Homo sapiens, UniProt P27361) (assay: Inhibition of ERK1). Conditions: not given.
T1 sequence (P27361 whole entry): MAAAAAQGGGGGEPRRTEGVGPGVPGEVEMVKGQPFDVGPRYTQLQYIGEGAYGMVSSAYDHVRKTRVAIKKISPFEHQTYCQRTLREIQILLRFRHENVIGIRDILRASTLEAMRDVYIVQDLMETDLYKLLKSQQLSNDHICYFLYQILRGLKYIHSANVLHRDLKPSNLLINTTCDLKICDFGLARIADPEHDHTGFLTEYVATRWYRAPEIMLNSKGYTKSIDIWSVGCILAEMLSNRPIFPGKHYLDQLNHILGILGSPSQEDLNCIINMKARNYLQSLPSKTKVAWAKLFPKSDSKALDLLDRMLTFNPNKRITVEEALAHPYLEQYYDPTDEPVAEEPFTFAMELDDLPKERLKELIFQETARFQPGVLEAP

SMILES	IC50
c1ccc(-c2n[nH]c3c2oc2ccccc23)cc1	≥ 10 µM
O=C1Cc2c([nH]c3ccc(Br)cc23)-c2ccccc2N1 [KENPAULLONE]	20 µM

Each compound was assayed against Casein kinase I isoform gamma-1 (Homo sapiens) (UniProt Q9HCP0). Conditions: not given.
Casein kinase I isoform gamma-1 (Homo sapiens), sequence (Q9HCP0 whole entry, looked up, canonical isoform): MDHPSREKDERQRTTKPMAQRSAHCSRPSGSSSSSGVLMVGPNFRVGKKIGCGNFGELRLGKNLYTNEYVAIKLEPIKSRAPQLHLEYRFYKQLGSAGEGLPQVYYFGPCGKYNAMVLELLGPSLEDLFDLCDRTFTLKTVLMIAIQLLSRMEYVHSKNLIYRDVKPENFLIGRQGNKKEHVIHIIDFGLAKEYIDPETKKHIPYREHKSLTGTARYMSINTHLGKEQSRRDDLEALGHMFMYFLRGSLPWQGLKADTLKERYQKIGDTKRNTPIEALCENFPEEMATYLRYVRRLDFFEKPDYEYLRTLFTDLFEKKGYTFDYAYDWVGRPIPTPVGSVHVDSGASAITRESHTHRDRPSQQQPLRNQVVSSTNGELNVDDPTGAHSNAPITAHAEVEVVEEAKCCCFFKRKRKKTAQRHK

SMILES	ΔTm
c1ccc(-c2n[nH]c3c2oc2ccccc23)cc1	0.8 °C
CCN(CC)CCNC(=O)c1c(C)[nH]c(/C=C2\C(=O)Nc3ccc(Cl)cc32)c1C [SU-11652]	4.3 °C
O=C1Cc2c([nH]c3ccc(Br)cc23)-c2ccccc2N1 [KENPAULLONE]	0.3 °C
CCCNC(=O)Nc1ccc(Oc2ncnc3cc(OC)c(OC)cc23)cc1Cl [KRN-633]	0.8 °C

What follows are compounds tested against Calcium/calmodulin-dependent protein kinase type II subunit alpha (Homo sapiens) (UniProt Q9UQM7). Conditions: not given.

SMILES	ΔTm
c1ccc(-c2n[nH]c3c2oc2ccccc23)cc1	0.3 °C
CCN(CC)CCNC(=O)c1c(C)[nH]c(/C=C2\C(=O)Nc3ccc(Cl)cc32)c1C [SU-11652]	5.7 °C
O=C1Cc2c([nH]c3ccc(Br)cc23)-c2ccccc2N1 [KENPAULLONE]	0 °C
CCCNC(=O)Nc1ccc(Oc2ncnc3cc(OC)c(OC)cc23)cc1Cl [KRN-633]	0.8 °C

Each compound was assayed against Mitogen-activated protein kinase 6 (Homo sapiens) (UniProt Q16659). Conditions: not given.

SMILES	ΔTm
c1ccc(-c2n[nH]c3c2oc2ccccc23)cc1	0.1 °C
CCN(CC)CCNC(=O)c1c(C)[nH]c(/C=C2\C(=O)Nc3ccc(Cl)cc32)c1C [SU-11652]	0.8 °C
O=C1Cc2c([nH]c3ccc(Br)cc23)-c2ccccc2N1 [KENPAULLONE]	0.9 °C
CCCNC(=O)Nc1ccc(Oc2ncnc3cc(OC)c(OC)cc23)cc1Cl [KRN-633]	1.2 °C

These compounds were tested against TRAF2 and NCK-interacting protein kinase (Homo sapiens) (UniProt Q9UKE5). Conditions: not given.

SMILES	ΔTm
c1ccc(-c2n[nH]c3c2oc2ccccc23)cc1	0.4 °C
CCN(CC)CCNC(=O)c1c(C)[nH]c(/C=C2\C(=O)Nc3ccc(Cl)cc32)c1C [SU-11652]	8.3 °C
O=C1Cc2c([nH]c3ccc(Br)cc23)-c2ccccc2N1 [KENPAULLONE]	6.7 °C
CCCNC(=O)Nc1ccc(Oc2ncnc3cc(OC)c(OC)cc23)cc1Cl [KRN-633]	0.2 °C

What follows are compounds tested against T2, Dual specificity mitogen-activated protein kinase kinase 6 (Homo sapiens) (UniProt P52564). Conditions: not given.
T2 sequence (whole entry): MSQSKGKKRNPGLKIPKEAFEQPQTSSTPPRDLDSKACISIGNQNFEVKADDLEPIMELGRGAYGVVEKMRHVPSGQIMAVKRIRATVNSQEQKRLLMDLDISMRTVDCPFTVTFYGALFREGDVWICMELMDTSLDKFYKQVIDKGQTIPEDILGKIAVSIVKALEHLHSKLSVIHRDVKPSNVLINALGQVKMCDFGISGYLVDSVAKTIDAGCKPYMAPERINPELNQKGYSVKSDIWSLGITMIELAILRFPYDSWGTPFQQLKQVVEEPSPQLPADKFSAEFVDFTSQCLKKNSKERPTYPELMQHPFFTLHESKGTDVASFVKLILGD

SMILES	ΔTm
c1ccc(-c2n[nH]c3c2oc2ccccc23)cc1	1 °C
CCN(CC)CCNC(=O)c1c(C)[nH]c(/C=C2\C(=O)Nc3ccc(Cl)cc32)c1C [SU-11652]	2.4 °C
O=C1Cc2c([nH]c3ccc(Br)cc23)-c2ccccc2N1 [KENPAULLONE]	0.4 °C
CCCNC(=O)Nc1ccc(Oc2ncnc3cc(OC)c(OC)cc23)cc1Cl [KRN-633]	0 °C

These compounds were tested against Calcium/calmodulin-dependent protein kinase type II subunit beta (Homo sapiens) (UniProt Q13554). Conditions: not given.
Calcium/calmodulin-dependent protein kinase type II subunit beta (Homo sapiens), sequence (Q13554 whole entry): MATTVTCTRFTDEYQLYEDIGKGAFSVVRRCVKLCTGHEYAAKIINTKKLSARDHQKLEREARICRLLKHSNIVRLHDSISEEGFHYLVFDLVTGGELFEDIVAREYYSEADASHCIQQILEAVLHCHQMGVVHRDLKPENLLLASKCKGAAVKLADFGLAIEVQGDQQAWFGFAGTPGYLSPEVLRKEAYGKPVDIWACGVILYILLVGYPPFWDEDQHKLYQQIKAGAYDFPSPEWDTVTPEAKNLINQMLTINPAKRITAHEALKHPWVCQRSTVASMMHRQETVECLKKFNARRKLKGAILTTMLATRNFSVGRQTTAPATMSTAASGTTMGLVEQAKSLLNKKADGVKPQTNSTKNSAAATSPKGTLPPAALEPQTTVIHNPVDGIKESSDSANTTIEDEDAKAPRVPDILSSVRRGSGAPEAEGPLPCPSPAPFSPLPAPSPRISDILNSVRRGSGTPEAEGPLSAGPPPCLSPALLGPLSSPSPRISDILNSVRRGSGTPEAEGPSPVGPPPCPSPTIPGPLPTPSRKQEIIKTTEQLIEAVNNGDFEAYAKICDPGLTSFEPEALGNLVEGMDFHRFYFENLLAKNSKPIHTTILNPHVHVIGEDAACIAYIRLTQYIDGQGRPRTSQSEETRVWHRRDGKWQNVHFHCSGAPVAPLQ

SMILES	ΔTm
c1ccc(-c2n[nH]c3c2oc2ccccc23)cc1	0.6 °C
CCN(CC)CCNC(=O)c1c(C)[nH]c(/C=C2\C(=O)Nc3ccc(Cl)cc32)c1C [SU-11652]	2.8 °C
O=C1Cc2c([nH]c3ccc(Br)cc23)-c2ccccc2N1 [KENPAULLONE]	0.5 °C
CCCNC(=O)Nc1ccc(Oc2ncnc3cc(OC)c(OC)cc23)cc1Cl [KRN-633]	0.8 °C

The compounds below were run against Calcium/calmodulin-dependent protein kinase type II subunit gamma (Homo sapiens) (UniProt Q13555). Conditions: not given.

SMILES	ΔTm
c1ccc(-c2n[nH]c3c2oc2ccccc23)cc1	0.4 °C
CCN(CC)CCNC(=O)c1c(C)[nH]c(/C=C2\C(=O)Nc3ccc(Cl)cc32)c1C [SU-11652]	6.2 °C
O=C1Cc2c([nH]c3ccc(Br)cc23)-c2ccccc2N1 [KENPAULLONE]	-0.2 °C
CCCNC(=O)Nc1ccc(Oc2ncnc3cc(OC)c(OC)cc23)cc1Cl [KRN-633]	0.3 °C

Each compound was assayed against Serine/threonine-protein kinase OSR1 (Homo sapiens) (UniProt O95747). Conditions: not given.

SMILES	ΔTm
c1ccc(-c2n[nH]c3c2oc2ccccc23)cc1	0.8 °C
CCN(CC)CCNC(=O)c1c(C)[nH]c(/C=C2\C(=O)Nc3ccc(Cl)cc32)c1C [SU-11652]	2.9 °C
O=C1Cc2c([nH]c3ccc(Br)cc23)-c2ccccc2N1 [KENPAULLONE]	1.8 °C
CCCNC(=O)Nc1ccc(Oc2ncnc3cc(OC)c(OC)cc23)cc1Cl [KRN-633]	0.3 °C

The compounds below were run against T3, Serine/threonine-protein kinase VRK1 (Homo sapiens) (UniProt Q99986). Conditions: not given.
T3 sequence (whole entry): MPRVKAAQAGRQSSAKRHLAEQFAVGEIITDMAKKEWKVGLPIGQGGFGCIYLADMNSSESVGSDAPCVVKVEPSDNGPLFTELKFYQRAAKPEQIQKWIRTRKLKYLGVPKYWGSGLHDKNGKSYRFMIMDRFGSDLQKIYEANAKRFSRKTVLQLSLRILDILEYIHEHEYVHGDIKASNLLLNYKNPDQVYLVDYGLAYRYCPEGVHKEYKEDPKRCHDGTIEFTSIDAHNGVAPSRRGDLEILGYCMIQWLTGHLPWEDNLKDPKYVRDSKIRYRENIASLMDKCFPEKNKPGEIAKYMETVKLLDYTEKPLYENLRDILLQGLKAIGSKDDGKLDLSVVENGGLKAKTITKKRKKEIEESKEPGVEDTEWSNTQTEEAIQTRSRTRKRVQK

SMILES	ΔTm
c1ccc(-c2n[nH]c3c2oc2ccccc23)cc1	1 °C
CCN(CC)CCNC(=O)c1c(C)[nH]c(/C=C2\C(=O)Nc3ccc(Cl)cc32)c1C [SU-11652]	0.6 °C
O=C1Cc2c([nH]c3ccc(Br)cc23)-c2ccccc2N1 [KENPAULLONE]	-0.1 °C
CCCNC(=O)Nc1ccc(Oc2ncnc3cc(OC)c(OC)cc23)cc1Cl [KRN-633]	0.3 °C

The compounds below were run against Dual specificity mitogen-activated protein kinase kinase 2 (Homo sapiens, UniProt P36507). Conditions: not given.

SMILES	ΔTm
c1ccc(-c2n[nH]c3c2oc2ccccc23)cc1	-0.4 °C
CCN(CC)CCNC(=O)c1c(C)[nH]c(/C=C2\C(=O)Nc3ccc(Cl)cc32)c1C [SU-11652]	6.3 °C
O=C1Cc2c([nH]c3ccc(Br)cc23)-c2ccccc2N1 [KENPAULLONE]	-0.3 °C
CCCNC(=O)Nc1ccc(Oc2ncnc3cc(OC)c(OC)cc23)cc1Cl [KRN-633]	0.2 °C

Each compound was assayed against Mast/stem cell growth factor receptor Kit (Homo sapiens, UniProt P10721) (assay: Inhibition of c-kit). Conditions: not given.
Mast/stem cell growth factor receptor Kit, sequence (P10721 whole entry): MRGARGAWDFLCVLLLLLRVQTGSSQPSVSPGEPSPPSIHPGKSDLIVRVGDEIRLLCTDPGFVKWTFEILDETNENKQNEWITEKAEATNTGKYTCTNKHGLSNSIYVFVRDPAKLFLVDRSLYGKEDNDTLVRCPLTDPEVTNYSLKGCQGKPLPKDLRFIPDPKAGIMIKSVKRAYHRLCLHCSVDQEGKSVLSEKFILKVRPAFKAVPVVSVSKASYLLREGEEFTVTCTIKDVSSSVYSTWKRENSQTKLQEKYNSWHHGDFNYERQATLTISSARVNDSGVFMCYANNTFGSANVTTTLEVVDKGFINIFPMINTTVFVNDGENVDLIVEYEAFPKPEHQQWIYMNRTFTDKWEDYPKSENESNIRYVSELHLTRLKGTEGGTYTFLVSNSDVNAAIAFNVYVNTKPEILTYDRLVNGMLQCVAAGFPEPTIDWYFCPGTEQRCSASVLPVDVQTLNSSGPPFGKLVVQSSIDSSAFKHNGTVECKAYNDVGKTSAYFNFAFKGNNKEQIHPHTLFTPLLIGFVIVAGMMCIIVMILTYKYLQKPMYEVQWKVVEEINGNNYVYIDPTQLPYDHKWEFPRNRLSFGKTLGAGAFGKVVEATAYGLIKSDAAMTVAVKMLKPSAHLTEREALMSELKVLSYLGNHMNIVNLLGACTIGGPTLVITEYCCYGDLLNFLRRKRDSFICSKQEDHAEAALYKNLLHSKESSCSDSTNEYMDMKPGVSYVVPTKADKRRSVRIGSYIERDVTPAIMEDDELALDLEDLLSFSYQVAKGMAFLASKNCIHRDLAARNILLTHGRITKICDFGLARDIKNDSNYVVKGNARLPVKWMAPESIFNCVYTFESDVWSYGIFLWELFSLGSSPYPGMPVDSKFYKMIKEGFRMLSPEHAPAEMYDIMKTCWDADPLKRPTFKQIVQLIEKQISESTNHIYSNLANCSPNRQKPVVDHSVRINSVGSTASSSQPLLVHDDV

SMILES	IC50
c1ccc(-c2n[nH]c3c2oc2ccccc23)cc1	0.3 µM
CCN(CC)CCNC(=O)c1c(C)[nH]c(/C=C2\C(=O)Nc3ccc(Cl)cc32)c1C [SU-11652]	0.01 µM
CCCNC(=O)Nc1ccc(Oc2ncnc3cc(OC)c(OC)cc23)cc1Cl [KRN-633]	4.33 µM

What follows are compounds tested against Calcium/calmodulin-dependent protein kinase type 1G (Homo sapiens) (UniProt Q96NX5). Conditions: not given.
Calcium/calmodulin-dependent protein kinase type 1G (Homo sapiens), sequence (Q96NX5 whole entry): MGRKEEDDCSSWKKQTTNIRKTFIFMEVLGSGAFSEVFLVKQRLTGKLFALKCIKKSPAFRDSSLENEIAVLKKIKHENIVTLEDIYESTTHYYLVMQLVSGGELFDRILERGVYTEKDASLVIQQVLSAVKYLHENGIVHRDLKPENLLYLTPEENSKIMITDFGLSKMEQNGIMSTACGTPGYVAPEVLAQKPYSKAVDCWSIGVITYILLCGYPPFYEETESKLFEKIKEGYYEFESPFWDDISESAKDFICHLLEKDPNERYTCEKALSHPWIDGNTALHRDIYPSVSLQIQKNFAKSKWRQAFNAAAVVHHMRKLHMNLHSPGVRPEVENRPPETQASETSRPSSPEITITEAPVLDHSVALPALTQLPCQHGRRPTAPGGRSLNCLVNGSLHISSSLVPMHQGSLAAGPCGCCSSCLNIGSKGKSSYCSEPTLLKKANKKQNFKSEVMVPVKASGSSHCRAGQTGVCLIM

SMILES	ΔTm
c1ccc(-c2n[nH]c3c2oc2ccccc23)cc1	0.3 °C
CCN(CC)CCNC(=O)c1c(C)[nH]c(/C=C2\C(=O)Nc3ccc(Cl)cc32)c1C [SU-11652]	5.7 °C
O=C1Cc2c([nH]c3ccc(Br)cc23)-c2ccccc2N1 [KENPAULLONE]	0.3 °C
CCCNC(=O)Nc1ccc(Oc2ncnc3cc(OC)c(OC)cc23)cc1Cl [KRN-633]	1 °C

The compounds below were run against T4, Myotonin-protein kinase (Homo sapiens) (UniProt Q09013). Conditions: not given.
T4 sequence (whole entry): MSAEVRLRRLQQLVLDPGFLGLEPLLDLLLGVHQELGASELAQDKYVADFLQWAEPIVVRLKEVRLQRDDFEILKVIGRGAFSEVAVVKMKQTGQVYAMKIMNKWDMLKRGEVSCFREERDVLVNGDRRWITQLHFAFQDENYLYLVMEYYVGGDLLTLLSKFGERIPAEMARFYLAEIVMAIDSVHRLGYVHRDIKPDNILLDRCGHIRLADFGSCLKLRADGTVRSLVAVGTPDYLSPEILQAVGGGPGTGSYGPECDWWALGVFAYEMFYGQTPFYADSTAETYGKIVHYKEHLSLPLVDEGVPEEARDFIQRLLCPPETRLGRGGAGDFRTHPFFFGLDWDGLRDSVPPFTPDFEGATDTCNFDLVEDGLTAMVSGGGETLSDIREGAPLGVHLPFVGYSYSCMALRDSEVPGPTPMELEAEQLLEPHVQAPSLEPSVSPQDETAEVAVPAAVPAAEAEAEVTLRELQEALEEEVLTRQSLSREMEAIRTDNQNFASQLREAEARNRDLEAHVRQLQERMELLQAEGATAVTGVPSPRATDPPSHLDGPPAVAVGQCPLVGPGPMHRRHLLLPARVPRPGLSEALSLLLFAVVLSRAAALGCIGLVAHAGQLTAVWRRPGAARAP

SMILES	ΔTm
c1ccc(-c2n[nH]c3c2oc2ccccc23)cc1	0 °C
CCN(CC)CCNC(=O)c1c(C)[nH]c(/C=C2\C(=O)Nc3ccc(Cl)cc32)c1C [SU-11652]	2.9 °C
O=C1Cc2c([nH]c3ccc(Br)cc23)-c2ccccc2N1 [KENPAULLONE]	5.8 °C
CCCNC(=O)Nc1ccc(Oc2ncnc3cc(OC)c(OC)cc23)cc1Cl [KRN-633]	0.6 °C

Each compound was assayed against Dual specificity protein kinase CLK3 (Homo sapiens) (UniProt P49761). Conditions: not given.
Dual specificity protein kinase CLK3 (Homo sapiens), sequence (P49761 whole entry, looked up): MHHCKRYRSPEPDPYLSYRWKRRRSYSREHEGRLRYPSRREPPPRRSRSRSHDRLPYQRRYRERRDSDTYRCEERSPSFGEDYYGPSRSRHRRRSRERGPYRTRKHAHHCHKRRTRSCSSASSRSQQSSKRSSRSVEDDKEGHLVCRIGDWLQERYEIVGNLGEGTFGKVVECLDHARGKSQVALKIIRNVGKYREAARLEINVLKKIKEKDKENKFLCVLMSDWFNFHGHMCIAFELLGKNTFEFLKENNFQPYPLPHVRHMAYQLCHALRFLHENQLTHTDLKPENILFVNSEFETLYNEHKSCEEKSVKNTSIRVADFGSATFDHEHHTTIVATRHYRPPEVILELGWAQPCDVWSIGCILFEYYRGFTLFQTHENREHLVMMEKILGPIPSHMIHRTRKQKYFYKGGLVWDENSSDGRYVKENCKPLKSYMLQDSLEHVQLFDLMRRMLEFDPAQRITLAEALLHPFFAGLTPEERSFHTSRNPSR

SMILES	ΔTm
c1ccc(-c2n[nH]c3c2oc2ccccc23)cc1	0 °C
CCN(CC)CCNC(=O)c1c(C)[nH]c(/C=C2\C(=O)Nc3ccc(Cl)cc32)c1C [SU-11652]	2.2 °C
O=C1Cc2c([nH]c3ccc(Br)cc23)-c2ccccc2N1 [KENPAULLONE]	0.8 °C
CCCNC(=O)Nc1ccc(Oc2ncnc3cc(OC)c(OC)cc23)cc1Cl [KRN-633]	0.1 °C

The compounds below were run against Calcium/calmodulin-dependent protein kinase type II subunit delta (Homo sapiens) (UniProt Q13557). Conditions: not given.
Calcium/calmodulin-dependent protein kinase type II subunit delta (Homo sapiens), sequence (Q13557 whole entry): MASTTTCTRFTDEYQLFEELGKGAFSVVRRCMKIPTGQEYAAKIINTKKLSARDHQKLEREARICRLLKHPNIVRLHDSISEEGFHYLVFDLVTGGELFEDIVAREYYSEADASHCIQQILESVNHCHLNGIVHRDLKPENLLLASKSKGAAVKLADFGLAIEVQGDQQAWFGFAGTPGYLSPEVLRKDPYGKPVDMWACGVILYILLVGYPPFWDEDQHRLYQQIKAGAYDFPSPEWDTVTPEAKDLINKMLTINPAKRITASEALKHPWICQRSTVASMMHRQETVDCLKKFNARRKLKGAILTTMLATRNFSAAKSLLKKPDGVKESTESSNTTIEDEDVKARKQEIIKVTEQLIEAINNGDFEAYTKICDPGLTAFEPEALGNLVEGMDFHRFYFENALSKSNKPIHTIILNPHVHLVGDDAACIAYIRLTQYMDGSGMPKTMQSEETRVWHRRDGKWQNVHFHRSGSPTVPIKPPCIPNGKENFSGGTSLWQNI

SMILES	ΔTm
c1ccc(-c2n[nH]c3c2oc2ccccc23)cc1	-0.2 °C
CCN(CC)CCNC(=O)c1c(C)[nH]c(/C=C2\C(=O)Nc3ccc(Cl)cc32)c1C [SU-11652]	2.3 °C
O=C1Cc2c([nH]c3ccc(Br)cc23)-c2ccccc2N1 [KENPAULLONE]	0.2 °C
CCCNC(=O)Nc1ccc(Oc2ncnc3cc(OC)c(OC)cc23)cc1Cl [KRN-633]	0.3 °C

These compounds were tested against T1, Mitogen-activated protein kinase 3. Conditions: not given.

SMILES	ΔTm
c1ccc(-c2n[nH]c3c2oc2ccccc23)cc1	0.3 °C
CCN(CC)CCNC(=O)c1c(C)[nH]c(/C=C2\C(=O)Nc3ccc(Cl)cc32)c1C [SU-11652]	0 °C
O=C1Cc2c([nH]c3ccc(Br)cc23)-c2ccccc2N1 [KENPAULLONE]	0.5 °C
CCCNC(=O)Nc1ccc(Oc2ncnc3cc(OC)c(OC)cc23)cc1Cl [KRN-633]	0.5 °C

These compounds were tested against Proto-oncogene tyrosine-protein kinase Src (Homo sapiens, UniProt P12931) (assay: Inhibition of Src). Conditions: read-out: IC50.

SMILES	IC50
c1ccc(-c2n[nH]c3c2oc2ccccc23)cc1	≥ 10 µM

Each compound was assayed against Dual specificity protein kinase CLK2 (Homo sapiens) (UniProt P49760). Conditions: not given.

SMILES	ΔTm
c1ccc(-c2n[nH]c3c2oc2ccccc23)cc1	1.7 °C
CCN(CC)CCNC(=O)c1c(C)[nH]c(/C=C2\C(=O)Nc3ccc(Cl)cc32)c1C [SU-11652]	5.8 °C
O=C1Cc2c([nH]c3ccc(Br)cc23)-c2ccccc2N1 [KENPAULLONE]	0.1 °C
CCCNC(=O)Nc1ccc(Oc2ncnc3cc(OC)c(OC)cc23)cc1Cl [KRN-633]	-0.2 °C
